From patent publication US4990508A, “Pyridone carboxylic acid derivatives and salts thereof, process for producing the same and antibacterial agents comprising the same” (Toyama Chemical Co., Ltd., priority 1988, dated 1991)
In brackets after ≈: the same amount, converted by molar mass. Where a name gives a salt, the structure may show the parent alone. Read-outs that look alike come from different tables or passages of the source.

Assays:
[1] = test system: M. morganii T-216; assay: MIC, agar dilution, standard method of Japan Society of Chemotherapy; type: cell-based; settings: Morganella morganii, T216, Heart Infusion agar, 37° C., 20 hours, 10^4 cells/plate (10^6 cells/ml)
Procedure: (§1) According to the standard method of Japan Society of Chemotherapy [CHEMOTHERAPY, 29 (1), 76-79 (1981)], a bacteria solution obtained by culturing in Heart Infusion broth (manufactured by Eiken Kagaku) at 37° C. for 20 hours was inoculated onto a Heart Infusion agar containing a drug and cultured at 37° C. for 20 hours, after which the growth of the bacteria was observed, to determine the minimum concentration at which the growth of the bacteria was inhibited as MIC (μg/ml). The amount of the inoculated bacteria was 10^4 cells/plate (10^6 cells/ml).

[2] = test system: P. mirabilis T-111; assay: as above; type: cell-based; settings: Proteus mirabilis, T111, Heart Infusion agar, 37° C., 20 hours, 10^4 cells/plate (10^6 cells/ml)
Procedure: as §1

[3] = test system: S. marcescens W-134; assay: as above; type: cell-based; settings: Serratia marcescens, W134, Heart Infusion agar, 37° C., 20 hours, 10^4 cells/plate (10^6 cells/ml)
Procedure: as §1

[4] = test system: E. coli TK-111; assay: as above; type: cell-based; settings: Escherichia coli, TK111, Heart Infusion agar, 37° C., 20 hours, 10^4 cells/plate (10^6 cells/ml)
Procedure: as §1

[5] = test system: C. freundii N-7; assay: as above; type: cell-based; settings: Citrobacter freundii
Procedure: as §1

[6] = test system: E. coli NIHJ; assay: as above; type: cell-based; settings: Escherichia coli, Heart Infusion agar, 37° C., 20 hours, 10^4 cells/plate (10^6 cells/ml)
Procedure: as §1

[7] = test system: P. aeruginosa GN-918*; assay: as above; type: cell-based; settings: Pseudomonas aeruginosa
Procedure: as §1
(§2) The asterisk in Table 1 means β-Lactamase-producing bacteria.

[8] = test system: K. pneumoniae Y-4*; assay: as above; type: cell-based; settings: Klebsiella pneumoniae
Procedure: as §1, §2

[9] = Acute toxicity, intravenous, mice; settings: mouse, in vivo, ICR strain male mice, 22±1 g, in 0.1N aqueous sodium hydroxide, read-out: 50% lethal dosage (LD50)
Procedure: A test compound was intravenously administered to a group of three ICR strain male mice each weighing 22±1 g to investigate the acute toxicity.
The test compound was dissolved in a 0.1N aqueous sodium hydroxide solution, and the resulting solution was applied.

[10] = GN918, P. aeruginosa GN-918, β-Lactamase-producing, Heart Infusion agar, 37° C., 20 hours, 10^4 cells/plate (10^6 cells/ml), read-out: MIC
[11] = N7, C. freundii N-7, Heart Infusion agar, 37° C., 20 hours, 10^4 cells/plate (10^6 cells/ml), read-out: MIC
[12] = K. pneumoniae Y-4, β-Lactamase-producing, Heart Infusion agar, 37° C., 20 hours, 10^4 cells/plate (10^6 cells/ml), read-out: MIC

Question: What does the source list for CC1COc2c(N3CCN(C)CC3)c(F)cc3c(=O)c(C(=O)O)cn1c23 (racemic) [Control compd., (±)9-Fluoro-2,3-dihydro-3-methyl-10-(4-methyl-1-piperazinyl)-7-oxo-7H-pyrido[1,2,3-de][1,4]benzoxazine-6carboxylic acid, reference compound]?
Answer: MIC [1]: 0.1 µg/mL (≈ 0.277 µM); MIC [2]: 0.39 µg/mL (≈ 1.08 µM); MIC [3]: 0.2 µg/mL (≈ 0.553 µM); MIC [4]: ≤ 0.05 µg/mL; MIC ([5]; N7, 20 h): 0.39 µg/mL (≈ 1.08 µM); MIC [6]: ≤ 0.05 µg/mL; MIC [7, 10]: 3.13 µg/mL (≈ 8.66 µM); MIC ([8]; 20 h): 0.39 µg/mL (≈ 1.08 µM)

Question: For CC1COc2c(C3(N)CC3)c(F)cc3c(=O)c(C(=O)O)cn1c23.Cl (stereo not shown) [Test Compound 1, 10-(1-Aminocyclopropyl)-9-fluoro-3-methyl-7-oxo-2,3-dihydro-7H-pyrido[1,2,3-de][1,4] benzoxazine-6carboxylic acid hydrochloride], which MIC [1] is on record?
Answer: ≤ 0.05 µg/mL

Question: What about the MIC [2] of the same molecule?
Answer: 0.1 µg/mL

Question: What about the MIC [3] of the same molecule?
Answer: 0.1 µg/mL

Question: And the MIC [4]?
Answer: ≤ 0.05 µg/mL

Question: What about the MIC [5, 11] of the same molecule?
Answer: ≤ 0.05 µg/mL

Question: What about the MIC [6] of the same molecule?
Answer: ≤ 0.05 µg/mL

Question: What about the MIC [7, 10] of the same molecule?
Answer: 0.2 µg/mL

Question: What about the MIC [8, 12] of the same molecule?
Answer: 0.2 µg/mL

Question: With CC1COc2c(C3(N)CC3)c(F)c(N)c3c(=O)c(C(=O)O)cn1c23.Cl (stereo not shown) [Test Compound 2, 8-Amino-10-(1-aminocyclopropyl)-9-fluoro-3-methyl-7-oxo-2,3-dihydro-7H-pyrido[1,2,3-de][1,4]-benzoxazine-6-carboxylic acid hydrochloride] as the molecule, how does the MIC [1] read?
Answer: 0.1 µg/mL

Question: What about the MIC [2] of the same molecule?
Answer: 0.39 µg/mL

Question: What about the MIC [3] of the same molecule?
Answer: 0.2 µg/mL

Question: What about the MIC [4] of the same molecule?
Answer: ≤ 0.05 µg/mL

Question: And the MIC [5, 11]?
Answer: 0.1 µg/mL

Question: What about the MIC [6] of the same molecule?
Answer: ≤ 0.05 µg/mL

Question: And the MIC [7, 10]?
Answer: 0.78 µg/mL

Question: What about the MIC ([8]; 20 h) of the same molecule?
Answer: 0.39 µg/mL

Question: Which results are given for CC1COc2c(C3(N)CC3)c(F)c(F)c3c(=O)c(C(=O)O)cn1c23.Cl (stereo not shown) [Test Compound 3, 10-(1-Aminocyclopropyl)-8,9-difluoro-3-methyl-7-oxo-2,3-dihydro-7H-pyrido[1,2,3-de][1,4]benzoxazine-6-carboxylic acid hydrochloride]?
Answer: MIC [1]: ≤ 0.05 µg/mL; MIC [2]: 0.2 µg/mL; MIC [3]: 0.2 µg/mL; MIC [4]: ≤ 0.05 µg/mL; MIC [5, 11]: 0.2 µg/mL; MIC [6]: ≤ 0.05 µg/mL; MIC [7, 10]: 0.78 µg/mL; MIC ([8]; 20 h): 0.39 µg/mL

Question: Which results are given for CC1COc2c(C3(N)CC3)c(F)c(O)c3c(=O)c(C(=O)O)cn1c23.Cl (stereo not shown) [Test Compound 4, 10-(1-Aminocyclopropyl)-9-fluoro-8-hydroxy-3-methyl-7-oxo-2,3-dihydro-7H-pyrido[1,2,3-de][1,4]-benzoxazine-6-carboxylic acid hydrochloride]?
Answer: MIC [1]: ≤ 0.05 µg/mL; MIC [2]: 0.2 µg/mL; MIC [3]: 0.2 µg/mL; MIC [4]: ≤ 0.05 µg/mL; MIC ([5]; N7, 20 h): 0.39 µg/mL; MIC [6]: ≤ 0.05 µg/mL; MIC [7, 10]: 0.78 µg/mL; MIC ([8]; 20 h): 0.39 µg/mL

Question: Which LD50 [9] does the source give for C[C@H]1COc2c(C3(N)CC3)c(F)cc3c(=O)c(C(=O)O)cn1c23.Cl [Test Compound 5, (S)-10-(1-aminocyclopropyl)-9-fluoro-3-methyl-7-oxo-2,3-dihydro-7H-pyrido[1,2,3-de][1,4]benzoxazine-6-carboxylic acid hydrochloride] here?
Answer: > 1000 mg/kg

Question: What about the MIC [1] of the same molecule?
Answer: ≤ 0.05 µg/mL

Question: And the MIC [2]?
Answer: ≤ 0.05 µg/mL

Question: And the MIC [3]?
Answer: ≤ 0.05 µg/mL

Question: What about the MIC [4] of the same molecule?
Answer: ≤ 0.05 µg/mL

Question: And the MIC [5, 11]?
Answer: ≤ 0.05 µg/mL

Question: What about the MIC [6] of the same molecule?
Answer: ≤ 0.05 µg/mL

Question: And the MIC [7, 10]?
Answer: 0.1 µg/mL

Question: What about the MIC [8, 12] of the same molecule?
Answer: ≤ 0.05 µg/mL

Question: Which MIC [1] does the source give for Cl.NC1(c2c(F)cc3c(=O)c(C(=O)O)cn4c3c2OCC4CF)CC1 (stereo not shown) [Test Compound 6, 10-(1-Aminocyclopropyl)-9-fluoro-3-fluoromethyl-7-oxo-2,3-dihydro-7H-pyrido[1,2,3-de][1,4]benzoxazine-6-carboxylic acid hydrochloride] here?
Answer: ≤ 0.05 µg/mL

Question: And the MIC [2]?
Answer: 0.1 µg/mL

Question: What about the MIC [3] of the same molecule?
Answer: 0.1 µg/mL

Question: And the MIC [4]?
Answer: ≤ 0.05 µg/mL

Question: And the MIC [5, 11]?
Answer: 0.1 µg/mL

Question: And the MIC [6]?
Answer: ≤ 0.05 µg/mL

Question: What about the MIC [7, 10] of the same molecule?
Answer: 0.2 µg/mL

Question: What about the MIC [8, 12] of the same molecule?
Answer: 0.2 µg/mL

Question: With CC[C@H]1COc2c(C3(N)CC3)c(F)cc3c(=O)c(C(=O)O)cn1c23.Cl [Test Compound 7, (S)-10-(1-aminocyclopropyl)-3-ethyl-9-fluoro-7-oxo-2,3-dihydro-7H-pyrido[1,2,3-de][1,4]benzoxazine-6carboxylic acid hydrochloride] as the molecule, how does the MIC [1] read?
Answer: ≤ 0.05 µg/mL

Question: What about the MIC [2] of the same molecule?
Answer: 0.2 µg/mL

Question: What about the MIC [3] of the same molecule?
Answer: 0.1 µg/mL

Question: And the MIC [4]?
Answer: ≤ 0.05 µg/mL

Question: What about the MIC [5, 11] of the same molecule?
Answer: 0.1 µg/mL

Question: What about the MIC [6] of the same molecule?
Answer: ≤ 0.05 µg/mL

Question: What about the MIC [7, 10] of the same molecule?
Answer: 0.2 µg/mL

Question: What about the MIC [8, 12] of the same molecule?
Answer: 0.2 µg/mL

Question: What does the source list for Br.C=C1COc2c(C3(N)CC3)c(F)cc3c(=O)c(C(=O)O)cn1c23 [Test Compound 8, 10-(1-Aminocyclopropyl)-9-fluoro-3-methylene-7-oxo-2,3-dihydro-7H-pyrido[1,2,3-de][1,4]benzoxazine-6-carboxylic acid hydrobromide]?
Answer: MIC [1]: 0.1 µg/mL; MIC [2]: 0.39 µg/mL; MIC [3]: 0.2 µg/mL; MIC [4]: ≤ 0.05 µg/mL; MIC [5, 11]: 0.1 µg/mL; MIC [6]: 0.1 µg/mL; MIC ([7]; GN918, 20 h): 0.39 µg/mL; MIC [8, 12]: 0.2 µg/mL

Question: For NC1(c2c(F)cc3c(=O)c(C(=O)O)cn4c3c2OCC42CC2)CC1 [Test Compound 9, 10'-(1-Aminocyclopropyl)-9'-fluoro-7+-oxospiro{cyclopropane-1,3'(2'H)-[7H]-pyrido[1,2,3-de][1,4]benzoxazine}-6'-carboxylic acid hydrochloride], which MIC [1] is on record?
Answer: 0.1 µg/mL

Question: And the MIC [2]?
Answer: 0.39 µg/mL

Question: What about the MIC [3] of the same molecule?
Answer: 0.2 µg/mL

Question: What about the MIC [4] of the same molecule?
Answer: ≤ 0.05 µg/mL

Question: What about the MIC [5, 11] of the same molecule?
Answer: 0.2 µg/mL

Question: And the MIC [6]?
Answer: 0.1 µg/mL

Question: What about the MIC ([7]; GN918, 20 h) of the same molecule?
Answer: 0.39 µg/mL

Question: And the MIC ([8]; 20 h)?
Answer: 0.39 µg/mL

Question: With CC1CC1(N)c1c(F)cc2c(=O)c(C(=O)O)cn3c2c1OC[C@@H]3C.Cl (stereo partly drawn) [Test Compound 10, (S)-10-(1-amino-2-methylcyclopropyl)-9-fluoro-3-methyl-7-oxo-2,3-dihydro-7H-pyrido[1,2,3-de][1,4]-benzoxazine-6-carboxylic acid hydrochloride] as the molecule, how does the MIC [1] read?
Answer: ≤ 0.05 µg/mL

Question: What about the MIC [2] of the same molecule?
Answer: 0.2 µg/mL

Question: What about the MIC [3] of the same molecule?
Answer: 0.1 µg/mL

Question: And the MIC [4]?
Answer: ≤ 0.05 µg/mL

Question: And the MIC [5, 11]?
Answer: ≤ 0.05 µg/mL

Question: What about the MIC [6] of the same molecule?
Answer: ≤ 0.05 µg/mL

Question: And the MIC [7, 10]?
Answer: 0.2 µg/mL

Question: What about the MIC [8, 12] of the same molecule?
Answer: 0.2 µg/mL

Question: Which results are given for CNC1(c2c(F)cc3c(=O)c(C(=O)O)cn4c3c2OC[C@@H]4C)CC1.Cl [Test Compound 11, (S)-10-[1-(N-methylamino)cyclopropyl]-9-fluoro-3-methyl-7-oxo-2,3-dihydro-7H-pyrido[1,2,3-de][1,4]-benzoxazine-6-carboxylic acid hydrochloride]?
Answer: MIC [1]: ≤ 0.05 µg/mL; MIC [2]: 0.1 µg/mL; MIC [3]: 0.1 µg/mL; MIC [4]: ≤ 0.05 µg/mL; MIC [5, 11]: 0.1 µg/mL; MIC [6]: ≤ 0.05 µg/mL; MIC [7, 10]: 0.2 µg/mL; MIC [8, 12]: 0.1 µg/mL
